Experimental findings from the supplement of paper PMC12076712 are described below.

± gives the standard deviation of the averaged measurements.

Common to all, as to assay: pIC50, kinobeads binding competition
Holding throughout (details): cell material: Jurkat lysate

In experiment [1] the target is UniProt O75582.
Experiment [2] concerns the target FER (UniProt P16591).
Experiment [3] deals with CDK10 (UniProt Q15131).
Experiment [4] has as its target UniProt P17252.
The target in experiment [5] is FGR (UniProt P09769).
The target in experiment [6] is UniProt Q9BVS4.
The target of experiment [7] is RIPK3 (UniProt Q9Y572).
For experiment [8], the target named is TYK2 (UniProt P29597).
The target in experiment [9] is BRAF (UniProt P15056).
In experiment [10] the target is UniProt Q9NYL2.
The target in experiment [11] is UniProt P27448.
Experiment [12] deals with T1, TAOK2 (UniProt Q9UL54).
T1 sequence (whole entry): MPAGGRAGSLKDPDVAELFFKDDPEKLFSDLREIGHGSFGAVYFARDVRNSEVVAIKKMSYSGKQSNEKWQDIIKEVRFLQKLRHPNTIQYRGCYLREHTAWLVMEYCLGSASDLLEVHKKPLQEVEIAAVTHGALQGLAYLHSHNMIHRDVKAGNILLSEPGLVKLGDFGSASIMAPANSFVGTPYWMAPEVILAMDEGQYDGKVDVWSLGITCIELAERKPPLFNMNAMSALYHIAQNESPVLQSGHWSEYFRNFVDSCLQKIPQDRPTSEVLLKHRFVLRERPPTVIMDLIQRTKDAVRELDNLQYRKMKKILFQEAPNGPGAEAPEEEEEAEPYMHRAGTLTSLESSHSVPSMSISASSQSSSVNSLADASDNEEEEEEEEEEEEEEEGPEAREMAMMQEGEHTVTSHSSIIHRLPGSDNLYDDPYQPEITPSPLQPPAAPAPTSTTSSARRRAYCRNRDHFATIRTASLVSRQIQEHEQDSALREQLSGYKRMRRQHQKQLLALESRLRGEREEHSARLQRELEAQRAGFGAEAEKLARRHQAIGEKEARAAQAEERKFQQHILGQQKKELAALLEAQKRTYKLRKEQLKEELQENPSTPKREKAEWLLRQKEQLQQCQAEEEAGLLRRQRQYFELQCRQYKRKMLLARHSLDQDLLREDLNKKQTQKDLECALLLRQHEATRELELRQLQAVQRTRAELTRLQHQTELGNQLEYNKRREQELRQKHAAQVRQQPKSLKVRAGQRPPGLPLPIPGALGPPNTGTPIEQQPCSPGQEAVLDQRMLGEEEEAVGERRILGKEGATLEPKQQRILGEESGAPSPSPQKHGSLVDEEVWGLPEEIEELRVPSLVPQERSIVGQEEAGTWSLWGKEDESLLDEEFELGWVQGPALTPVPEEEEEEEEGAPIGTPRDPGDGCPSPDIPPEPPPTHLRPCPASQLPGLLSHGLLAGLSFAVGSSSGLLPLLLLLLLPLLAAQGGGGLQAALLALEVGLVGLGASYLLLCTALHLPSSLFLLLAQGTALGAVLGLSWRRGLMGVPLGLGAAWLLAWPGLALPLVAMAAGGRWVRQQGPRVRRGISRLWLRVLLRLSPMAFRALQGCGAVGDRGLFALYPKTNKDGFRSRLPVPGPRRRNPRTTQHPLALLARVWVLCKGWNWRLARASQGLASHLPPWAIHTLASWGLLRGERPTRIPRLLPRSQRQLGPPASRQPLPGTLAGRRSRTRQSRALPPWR

Experiment [13] concerns the target T2, NEK1 (UniProt Q96PY6).
T2 sequence (whole entry): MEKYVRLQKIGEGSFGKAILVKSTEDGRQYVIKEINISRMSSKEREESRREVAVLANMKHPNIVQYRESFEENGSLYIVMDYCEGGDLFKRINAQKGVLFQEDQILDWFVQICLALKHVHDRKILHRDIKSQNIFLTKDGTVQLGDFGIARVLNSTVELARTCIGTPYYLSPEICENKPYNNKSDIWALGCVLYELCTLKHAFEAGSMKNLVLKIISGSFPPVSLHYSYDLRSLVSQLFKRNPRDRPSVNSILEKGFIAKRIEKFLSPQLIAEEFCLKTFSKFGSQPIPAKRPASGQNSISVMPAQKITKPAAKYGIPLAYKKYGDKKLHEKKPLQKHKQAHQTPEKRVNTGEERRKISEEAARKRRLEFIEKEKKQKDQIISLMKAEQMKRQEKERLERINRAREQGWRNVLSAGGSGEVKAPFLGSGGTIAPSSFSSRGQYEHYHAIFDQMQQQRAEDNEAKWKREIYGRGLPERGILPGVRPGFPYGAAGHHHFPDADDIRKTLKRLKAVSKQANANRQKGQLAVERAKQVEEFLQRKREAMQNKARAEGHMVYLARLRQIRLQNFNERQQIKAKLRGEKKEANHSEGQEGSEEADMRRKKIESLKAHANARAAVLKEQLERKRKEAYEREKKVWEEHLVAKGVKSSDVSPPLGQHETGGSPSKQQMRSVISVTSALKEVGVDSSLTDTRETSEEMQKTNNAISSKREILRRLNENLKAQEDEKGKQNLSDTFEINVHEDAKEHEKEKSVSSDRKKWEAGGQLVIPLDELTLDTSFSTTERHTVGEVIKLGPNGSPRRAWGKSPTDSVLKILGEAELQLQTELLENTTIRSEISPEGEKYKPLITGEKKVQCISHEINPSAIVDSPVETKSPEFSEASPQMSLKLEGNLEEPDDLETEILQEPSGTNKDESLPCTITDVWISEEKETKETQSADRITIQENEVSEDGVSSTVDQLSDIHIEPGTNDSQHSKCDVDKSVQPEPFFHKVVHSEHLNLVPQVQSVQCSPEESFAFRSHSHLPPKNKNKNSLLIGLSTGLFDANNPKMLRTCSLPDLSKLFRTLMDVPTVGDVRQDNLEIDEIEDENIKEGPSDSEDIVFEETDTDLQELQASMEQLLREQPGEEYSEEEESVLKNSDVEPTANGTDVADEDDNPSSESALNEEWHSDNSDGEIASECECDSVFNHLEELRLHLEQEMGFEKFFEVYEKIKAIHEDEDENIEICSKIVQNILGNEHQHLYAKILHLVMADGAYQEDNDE

Experiment [14] deals with UniProt P68400.
UniProt P68400, sequence (P68400 whole entry, looked up): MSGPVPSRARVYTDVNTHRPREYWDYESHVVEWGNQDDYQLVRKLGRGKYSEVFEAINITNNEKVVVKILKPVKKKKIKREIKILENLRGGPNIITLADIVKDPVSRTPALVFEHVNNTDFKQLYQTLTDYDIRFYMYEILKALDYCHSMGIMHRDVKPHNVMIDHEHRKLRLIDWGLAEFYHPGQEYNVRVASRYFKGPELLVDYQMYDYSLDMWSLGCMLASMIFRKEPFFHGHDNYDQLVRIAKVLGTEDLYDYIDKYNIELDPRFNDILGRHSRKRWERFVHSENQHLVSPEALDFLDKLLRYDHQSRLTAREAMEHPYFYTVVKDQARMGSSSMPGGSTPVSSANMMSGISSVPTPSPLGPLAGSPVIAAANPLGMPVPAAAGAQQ

UniProt P27448, sequence (P27448 whole entry, looked up): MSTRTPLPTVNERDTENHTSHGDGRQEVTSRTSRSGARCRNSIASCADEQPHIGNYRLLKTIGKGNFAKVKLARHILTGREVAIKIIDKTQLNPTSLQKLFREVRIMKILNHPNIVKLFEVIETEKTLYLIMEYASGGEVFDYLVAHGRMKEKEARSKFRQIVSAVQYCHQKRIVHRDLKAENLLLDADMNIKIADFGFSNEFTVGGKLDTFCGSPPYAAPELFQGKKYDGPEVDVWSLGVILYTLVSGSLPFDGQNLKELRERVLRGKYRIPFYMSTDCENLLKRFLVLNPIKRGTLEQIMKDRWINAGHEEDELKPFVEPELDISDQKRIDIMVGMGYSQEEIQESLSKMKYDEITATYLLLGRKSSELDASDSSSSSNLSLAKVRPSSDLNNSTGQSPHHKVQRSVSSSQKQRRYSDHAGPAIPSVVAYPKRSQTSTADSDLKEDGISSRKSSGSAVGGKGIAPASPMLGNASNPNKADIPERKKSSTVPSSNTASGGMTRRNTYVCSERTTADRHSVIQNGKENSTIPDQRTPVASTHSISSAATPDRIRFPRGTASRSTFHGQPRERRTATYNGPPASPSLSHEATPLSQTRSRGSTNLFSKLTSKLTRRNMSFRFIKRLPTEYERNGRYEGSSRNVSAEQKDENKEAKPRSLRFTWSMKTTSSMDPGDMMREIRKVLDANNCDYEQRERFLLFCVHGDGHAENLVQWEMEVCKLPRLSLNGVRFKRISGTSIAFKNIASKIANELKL
UniProt Q9NYL2, sequence (Q9NYL2 whole entry, looked up): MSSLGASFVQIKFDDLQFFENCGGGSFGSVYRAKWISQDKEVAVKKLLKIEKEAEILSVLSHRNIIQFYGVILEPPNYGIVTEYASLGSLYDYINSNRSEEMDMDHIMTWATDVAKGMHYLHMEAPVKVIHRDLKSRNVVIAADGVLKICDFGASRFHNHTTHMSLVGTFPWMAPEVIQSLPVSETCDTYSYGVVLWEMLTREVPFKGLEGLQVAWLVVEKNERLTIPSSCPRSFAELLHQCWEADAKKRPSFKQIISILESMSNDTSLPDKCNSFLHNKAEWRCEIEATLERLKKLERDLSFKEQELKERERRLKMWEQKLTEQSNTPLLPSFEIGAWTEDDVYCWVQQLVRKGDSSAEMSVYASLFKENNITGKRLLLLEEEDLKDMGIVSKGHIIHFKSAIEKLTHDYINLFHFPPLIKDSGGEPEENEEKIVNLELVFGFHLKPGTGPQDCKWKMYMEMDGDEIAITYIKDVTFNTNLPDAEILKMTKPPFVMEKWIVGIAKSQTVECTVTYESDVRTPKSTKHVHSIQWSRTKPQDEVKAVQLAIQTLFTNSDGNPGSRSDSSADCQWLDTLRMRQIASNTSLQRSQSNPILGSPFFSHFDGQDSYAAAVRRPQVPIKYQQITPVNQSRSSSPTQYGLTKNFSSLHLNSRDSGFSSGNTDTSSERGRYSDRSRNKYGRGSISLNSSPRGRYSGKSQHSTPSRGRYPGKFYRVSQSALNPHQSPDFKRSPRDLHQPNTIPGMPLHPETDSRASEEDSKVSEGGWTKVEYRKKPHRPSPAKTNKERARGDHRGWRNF
TYK2, sequence (P29597 whole entry): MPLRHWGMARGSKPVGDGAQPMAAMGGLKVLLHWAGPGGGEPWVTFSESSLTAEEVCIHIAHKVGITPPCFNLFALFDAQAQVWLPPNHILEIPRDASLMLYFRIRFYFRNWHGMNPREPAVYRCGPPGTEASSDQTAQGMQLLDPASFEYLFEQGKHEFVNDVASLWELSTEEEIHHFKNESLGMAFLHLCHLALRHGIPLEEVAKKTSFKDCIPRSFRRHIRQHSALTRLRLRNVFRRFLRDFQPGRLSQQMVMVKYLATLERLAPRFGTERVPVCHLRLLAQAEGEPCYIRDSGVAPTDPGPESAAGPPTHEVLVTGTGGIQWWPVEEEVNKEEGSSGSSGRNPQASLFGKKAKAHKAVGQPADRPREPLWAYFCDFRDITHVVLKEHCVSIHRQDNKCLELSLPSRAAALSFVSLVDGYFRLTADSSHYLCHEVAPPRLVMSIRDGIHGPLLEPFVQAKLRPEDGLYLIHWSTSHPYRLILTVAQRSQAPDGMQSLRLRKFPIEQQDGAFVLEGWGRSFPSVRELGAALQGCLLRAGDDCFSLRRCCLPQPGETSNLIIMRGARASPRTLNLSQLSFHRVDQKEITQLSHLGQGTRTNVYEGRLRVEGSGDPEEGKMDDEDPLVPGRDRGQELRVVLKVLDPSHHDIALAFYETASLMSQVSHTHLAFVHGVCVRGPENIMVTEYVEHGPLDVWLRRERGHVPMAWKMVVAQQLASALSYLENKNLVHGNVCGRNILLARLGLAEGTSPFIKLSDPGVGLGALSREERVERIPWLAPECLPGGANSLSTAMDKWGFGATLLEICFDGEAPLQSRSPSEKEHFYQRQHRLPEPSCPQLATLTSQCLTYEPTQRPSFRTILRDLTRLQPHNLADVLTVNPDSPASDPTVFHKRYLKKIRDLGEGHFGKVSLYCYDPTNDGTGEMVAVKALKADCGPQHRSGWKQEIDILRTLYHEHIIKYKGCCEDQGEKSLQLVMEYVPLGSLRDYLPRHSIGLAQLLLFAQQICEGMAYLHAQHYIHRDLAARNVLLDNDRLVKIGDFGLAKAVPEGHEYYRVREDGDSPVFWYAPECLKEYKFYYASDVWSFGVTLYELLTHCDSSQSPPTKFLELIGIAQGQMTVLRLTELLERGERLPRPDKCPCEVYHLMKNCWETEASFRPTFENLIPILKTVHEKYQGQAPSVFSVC
CDK10, sequence (Q15131 whole entry): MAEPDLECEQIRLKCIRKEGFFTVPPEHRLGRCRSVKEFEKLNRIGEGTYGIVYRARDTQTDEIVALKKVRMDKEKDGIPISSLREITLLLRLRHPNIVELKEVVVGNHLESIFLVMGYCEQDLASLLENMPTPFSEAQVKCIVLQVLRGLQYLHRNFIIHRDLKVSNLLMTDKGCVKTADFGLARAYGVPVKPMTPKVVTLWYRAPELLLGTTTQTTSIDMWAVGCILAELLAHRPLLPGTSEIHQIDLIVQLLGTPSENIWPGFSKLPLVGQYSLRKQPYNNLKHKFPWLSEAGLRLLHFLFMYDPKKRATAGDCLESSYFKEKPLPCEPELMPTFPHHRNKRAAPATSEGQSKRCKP
FER, sequence (P16591 whole entry, looked up): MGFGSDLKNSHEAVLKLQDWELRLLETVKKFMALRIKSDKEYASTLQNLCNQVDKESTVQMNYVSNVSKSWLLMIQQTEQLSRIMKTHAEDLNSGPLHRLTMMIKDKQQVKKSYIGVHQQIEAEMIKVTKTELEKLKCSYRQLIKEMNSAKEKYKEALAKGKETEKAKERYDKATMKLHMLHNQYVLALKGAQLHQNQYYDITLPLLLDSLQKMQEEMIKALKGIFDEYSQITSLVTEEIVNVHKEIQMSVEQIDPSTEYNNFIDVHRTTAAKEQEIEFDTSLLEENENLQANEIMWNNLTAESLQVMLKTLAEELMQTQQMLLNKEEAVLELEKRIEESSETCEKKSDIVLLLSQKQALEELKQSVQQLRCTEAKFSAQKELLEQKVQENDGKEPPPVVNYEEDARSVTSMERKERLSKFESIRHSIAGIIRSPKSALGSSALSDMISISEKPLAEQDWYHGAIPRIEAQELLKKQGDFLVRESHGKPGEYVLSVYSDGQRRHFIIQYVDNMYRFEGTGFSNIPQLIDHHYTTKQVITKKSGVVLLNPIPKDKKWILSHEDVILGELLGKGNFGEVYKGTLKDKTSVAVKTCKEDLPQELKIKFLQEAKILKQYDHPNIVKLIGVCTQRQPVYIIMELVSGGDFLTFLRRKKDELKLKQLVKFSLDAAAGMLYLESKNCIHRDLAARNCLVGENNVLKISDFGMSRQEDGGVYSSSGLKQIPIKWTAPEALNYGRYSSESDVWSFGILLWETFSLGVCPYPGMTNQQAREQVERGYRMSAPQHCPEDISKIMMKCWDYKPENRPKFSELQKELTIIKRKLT
RIPK3, sequence (Q9Y572 whole entry, looked up): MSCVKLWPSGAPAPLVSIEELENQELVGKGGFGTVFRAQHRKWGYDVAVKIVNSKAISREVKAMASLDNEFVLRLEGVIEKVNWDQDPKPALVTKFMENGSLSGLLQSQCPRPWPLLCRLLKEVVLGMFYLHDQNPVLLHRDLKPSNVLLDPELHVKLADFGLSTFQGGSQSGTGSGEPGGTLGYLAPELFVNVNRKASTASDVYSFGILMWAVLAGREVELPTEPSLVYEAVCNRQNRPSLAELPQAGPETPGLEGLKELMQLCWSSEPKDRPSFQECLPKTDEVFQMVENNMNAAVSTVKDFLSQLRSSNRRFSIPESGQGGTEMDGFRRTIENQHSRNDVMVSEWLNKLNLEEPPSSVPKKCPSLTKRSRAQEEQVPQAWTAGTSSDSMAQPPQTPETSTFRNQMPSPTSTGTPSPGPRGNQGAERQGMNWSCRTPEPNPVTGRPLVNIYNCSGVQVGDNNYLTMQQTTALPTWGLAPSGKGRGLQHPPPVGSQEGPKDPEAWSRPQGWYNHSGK

Consider `CCc1cnn2c(NCc3ccc[n+]([O-])c3)cc(N3CCCC[C@H]3CCO)nc12` [dinaciclib], for which the pIC50 was < 4.52 in [1]; < 4.52 in [2]; 7.86 ± 0.31 in experiment [3]; < 4.52 in [4]; < 4.52 in [5]; < 4.52 in experiment [6]. The pIC50 was < 4.52 in experiment [7]; < 4.52 in [8]; < 4.52 in [9]; < 4.52 in [10]; < 4.52 in experiment [11]; 5.6 ± 0.085 in experiment [12]. Besides, the pIC50 in experiment [13] and in [14] was < 4.52 in each case.

The term pIC50 denotes −log10 of the IC50, conventionally taken in molar units.
